From the supplement of paper PMC4862054

Tests used:
Conditions in all cases: incubation time: 72 h
MDA-MB-453 [1] = assay: drug sensitivity score (DSS), CellTiter-Blue viability (DSS (AUC-based score)); higher = stronger viability inhibition; extreme values may be limits of the assay
Method: (§1)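 DSRT with the CellTiter-Blue (resazurin reduction) viability readout, fluorescence 560/590 nm, 72 h incubation. Plates were normalised to DMSO and benzethonium chloride controls. DSS is computed from the area under the fitted dose-response curve (5 or 9 concentrations).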

CAL-148 [2] = assay: as above
Method: as §1

CAL-51 = assay: as above
Method: as §1

CAL-120 = assay: as above
Method: as §1

Hs578T [3] = assay: as above
Method: as §1

HCC1143 [4] = assay: as above
Method: as §1

HCC1937 = assay: as above
Method: as §1

MDA-MB-436 [5] = assay: as above
Method: as §1

BT-549 = assay: as above
Method: as §1

MFM-223 [6] = assay: as above
Method: as §1

HCC1599 [7] = assay: as above
Method: as §1

DU-4475 = assay: as above
Method: as §1

HDQ-P1 [8] = assay: as above
Method: as §1

CAL-85-1 [9] = assay: as above
Method: as §1

MDA-MB-453 [10] = assay: drug sensitivity score (DSS), CellTox Green (DSS (AUC-based score)); higher = stronger drug effect (viability inhibition or cytotoxicity); extreme values may be limits of the assay
How it was run: (§2)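 In 384-well plates, compound was laid out at 5 concentrations in 10-fold steps over a 10,000-fold range specific to each compound, and breast cancer cell lines were seeded on top in 20 µl suspension for a 72 h incubation. CellTox Green fluorescence and then CellTiter-Glo luminescence were read, and each plate was normalised to 0.1 % DMSO and a positive kill control. The drug sensitivity score was calculated from the area under the fitted dose-response curve.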

CAL-148 [11] = assay: as above
How it was run: as §2

Hs578T [12] = assay: as above
How it was run: as §2

HCC1143 [13] = assay: as above
How it was run: as §2

MDA-MB-436 [14] = assay: as above
How it was run: as §2

MFM-223 [15] = assay: as above
How it was run: as §2

MDA-MB-231 = assay: as above
How it was run: as §2

BT-474 = assay: as above
How it was run: as §2

HCC1599 [16] = assay: as above
How it was run: as §2

MCF-10A = assay: as above
How it was run: as §2

HDQ-P1 [17] = assay: as above
How it was run: as §2

CAL-85-1 [18] = assay: as above
How it was run: as §2

Row | Compound | drug sensitivity score (MDA-MB-453 [1]) | drug sensitivity score (CAL-148 [2]) | drug sensitivity score (CAL-51) | drug sensitivity score (CAL-120) | drug sensitivity score (Hs578T [3]) | drug sensitivity score (HCC1143 [4]) | drug sensitivity score (HCC1937) | drug sensitivity score (MDA-MB-436 [5]) | drug sensitivity score (BT-549) | drug sensitivity score (MFM-223 [6]) | drug sensitivity score (HCC1599 [7]) | drug sensitivity score (DU-4475) | drug sensitivity score (HDQ-P1 [8]) | drug sensitivity score (CAL-85-1 [9]) | drug sensitivity score (MDA-MB-453 [10]) | drug sensitivity score (CAL-148 [11]) | drug sensitivity score (Hs578T [12]) | drug sensitivity score (HCC1143 [13]) | drug sensitivity score (MDA-MB-436 [14]) | drug sensitivity score (MFM-223 [15]) | drug sensitivity score (MDA-MB-231) | drug sensitivity score (BT-474) | drug sensitivity score (HCC1599 [16]) | drug sensitivity score (MCF-10A) | drug sensitivity score (HDQ-P1 [17]) | drug sensitivity score (CAL-85-1 [18])
1 | CN[C@@H]1C[C@H]2O[C@@](C)([C@@H]1OC)n1c3ccccc3c3c4c(c5c6ccccc6n2c5c31)C(=O)N[C@H]4O [UCN-01] | 18.2 | 7 | 20.4 | 24.2 | 29.2 | 22.2 | 20 | 12.4 | 22.4 | 14.7 | 17 | 19.5 | 19.9 | 17.3 | 1.04 | 3.4 | 17.7 | 8.74 | 0 | 6.67 | 19 | 7.59 | 0 | 21.6 | 14.7 | 20.2
2 | C#Cc1cccc(Nc2ncnc3cc(OCCOC)c(OCCOC)cc23)c1 [Erlotinib] | 2.55 | 5.88 | 0 | 3.43 | 0 | 0 | 4.19 | 2.82 | 0 | 0 | 3.83 | 0 | 7.17 | 8.53 | 0 | 0 | 0 | 0 | 0 | 0 |  | 0.507 | 0 | 0 | 0 | 6.41
3 | CCC1=C[C@@H]2CN(C1)Cc1c([nH]c3ccccc13)[C@@](C(=O)OC)(c1cc3c(cc1OC)N(C)[C@H]1[C@@](O)(C(=O)OC)[C@H](OC(C)=O)[C@]4(CC)C=CCN5CC[C@]31[C@@H]54)C2 [Vinorelbine] | 26.1 | 22.5 | 19.6 | 24.4 | 24.6 | 16.8 | 25.3 | 16.5 | 25.6 | 18.4 | 9.76 | 15.8 | 16.5 | 20.9 | 0 | 9.47 | 23.3 | 0 | 3.27 | 12.7 | 18.1 | 10 | 2.9 | 23.7 | 0 | 11.7
4 | Cn1c(Nc2ccc(C(F)(F)F)cc2)nc2cc(Oc3ccnc(-c4ncc(C(F)(F)F)[nH]4)c3)ccc21 [RAF265] | 0 | 0 | 3.43 | 6.51 | 1.15 | 7.68 | 4.12 | 2.55 | 5.55 | 5.45 | 0 | 3.23 | 9.94 | 0 | 0 | 0 | 0 | 0 | 0 | 2.58 | 0 | 0 | 0 |  | 0 | 4.33
5 | N[C@@H](CSC(c1ccccc1)(c1ccccc1)c1ccccc1)C(=O)O [S-trityl-L-cysteine] | 0 | 0 | 0 | 10.4 | 12.9 | 1.21 | 16.4 | 4.31 | 2.15 | 0 | 0 | 0 | 0 | 0 | 0 | 0 | 0 | 0 | 0 | 0 | 0 | 0 | 0 | 0 | 0 | 0
6 | COc1cc([C@@H]2c3cc4c(cc3[C@@H](O[C@@H]3O[C@@H]5CO[C@@H](C)O[C@H]5[C@H](O)[C@H]3O)[C@H]3COC(=O)[C@H]23)OCO4)cc(OC)c1O [Etoposide] | 0 | 10.3 | 14.5 | 4.94 | 5.23 | 7.4 | 6.25 | 3.41 | 11 | 0 | 2.06 | 19.8 | 3.32 | 2.33 | 0 | 5.65 | 20.3 | 0 | 0 | 0 | 0 | 0 | 0 | 0 | 0 | 1.64
7 | CO[C@H]1/C=C\C=C(/C)C(=O)NC2=CC(=O)C(NCCN(C)C)=C(C[C@@H](C)C[C@H](OC)[C@H](O)[C@@H](C)/C=C(\C)[C@@H]1OC(N)=O)C2=O [Alvespimycin] | 22.6 | 16.9 | 14 | 15.3 | 16.5 | 11.5 | 17.2 | 16.1 | 20 | 18.7 | 10.5 | 21.9 | 13.8 | 13.7 | 0.783 | 9.12 | 7.05 | 9.99 | 0 | 0 | 7.29 | 4.58 | 0 | 13 | 4.4 | 6.41
8 | Clc1ccc(Nc2nnc(Cc3ccncc3)c3ccccc23)cc1 [Vatalanib] | 0 | 0 | 0 | 0 | 0 | 0 | 0 | 0 | 0 | 0 | 0 | 0 | 0 | 0 | 0 | 1.43 | 0 | 0 | 0 | 0 | 0 | 0 | 0 | 2.74 | 0 | 0
9 | CNCc1ccc(-c2[nH]c3cc(F)cc4c3c2CCNC4=O)cc1 [Rucaparib] | 2.23 | 1.96 | 1.41 | 0 | 0 | 0 | 6.08 | 0 | 0 | 1.28 | 0 | 0 | 0 | 0 | 0 | 0 | 1.33 | 0 | 0 | 0 | 0 | 0 | 0 | 0 | 0 | 0
10 | Oc1nc(-c2ccc(C(F)(F)F)cc2)nc2c1CSCC2 [XAV-939] | 0 | 0 | 0 | 0 | 0 | 7.23 | 0 | 0 | 0 | 0 | 0 | 0 | 0.887 | 0 | 0 | 0 | 3.23 | 0 | 0 | 0 | 0 | 0 | 0 | 0 | 3.77 | 0
11 | COc1cc2nccc(Oc3ccc(NC(=O)C4(C(=O)Nc5ccc(F)cc5)CC4)cc3)c2cc1OC [Cabozantinib] | 1.25 | 0.402 | 0 | 0 | 0 | 0 | 0 | 0 | 0 | 0 | 0 | 0 | 0 | 0 | 0 | 0 | 0 | 0 | 0 | 0 | 0 | 0 | 0 | 0 | 0 | 0
12 | C[C@]12CC[C@@H]3c4ccc(O)cc4C[C@@H](CCCCCCCCC[S+]([O-])CCCC(F)(F)C(F)(F)F)[C@H]3[C@@H]1CC[C@@H]2O (stereo not given in full) [Fulvestrant] | 0 | 0 | 0 | 0 | 0 | 0 | 0 | 0 | 0 | 1.05 | 0 | 0 | 0 | 0 | 0 | 0 | 0 | 0 | 0 | 0 | 0 | 0 | 0 | 0 | 0 | 0
13 | CC1(C)NC(=O)N(c2ccc([N+](=O)[O-])c(C(F)(F)F)c2)C1=O [Nilutamide] | 0 | 0 | 0 | 0 | 0 | 0 | 0 | 0 | 0 | 0 | 0 | 0 | 0 | 0 | 0 | 0 | 0 |  | 0 | 0 | 0 | 0 | 0 | 0 | 0 | 0
